Weight data for five compounds are collected here from ChEMBL document CHEMBL1121575, “Synthesis and biological activity of some 15-oxaestranes” (J Med Chem, 1980).

The target in test [1] is T1, Estrogen receptor (Rattus norvegicus) (UniProt P06211+Q62986). The experiment in a line: Oral estrogenic activity in uterotropic assay in rats at 20-200 ng dose. The test is classed as functional.
Test [2] addresses T1, Estrogen receptor (Rattus norvegicus). The experiment in a line: Oral estrogenic activity in uterotropic assay in rats at 40-1000 ng dose. The test is classed as functional.
The target is the same in test [3].
Description: Oral estrogenic activity in uterotropic assay in rats at 400-4000ng dose
For test [4] the target is unchanged. The source holds these as a separate data set.
Description: Oral estrogenic activity in uterotropic assay in rats at 100-1000 ng dose
Test [5] has the same target. The test is described as follows: Oral estrogenic activity in uterotropic assay in rats at 40-400 ng dose. The test is classed as functional.

Turning to `CC12CCC3c4ccc(O)cc4CCC3C1OC[C@@H]2O` (stereo not given in full), in test [1], the Weight is -7.8 mg.
As to `CC12CCC3c4ccc(OC5CCCC5)cc4CCC3C1OCC2=O` (stereo not given), the Weight in test [2] was -52.2 mg.
`C[C@]12CC[C@@H]3c4ccc(O)cc4CC[C@H]3[C@@H]1CCC2=O` came in with a Weight in test [3] of -120 mg.
`C#C[C@]1(O)COC2C3CCc4cc(OC)ccc4C3CCC21C` (stereo not given in full): in test [4], the Weight is -23.9 mg.
`CC12CCC3c4ccc(O)cc4CCC3C1OCC2=O` (stereo not given) returned a Weight in test [5] of -32.1 mg.
